These compounds were tested on E. multilocularis metacestodes (assay: PGI assay: phosphoglucose isomerase release from damaged metacestodes). Conditions: 10 μM, 5 days, single wells, relative to DB1127 (10 μM).
Assay type: cell-based, Echinococcus multilocularis
Method: The preparation of E. multilocularis metacestode material (strain H95) from intraperitoneally (i.p.) infected BALB/c mice was performed as described earlier. Metacestode vesicles were used for in vitro drug screening when they reached 2 to 4 mm in diameter.
For screening of the Malaria Box against E. multilocularis metacestodes, the PGI screening assay was applied that measures the release of the enzyme phosphoglucose isomerase (PGI) upon physical impairment of metacestodes. The screening setup was done in 24 well plates as described by Stadelmann et al. For initial screening, each drug was applied at 10 μM to metacestodes in single wells. As a positive control-drug, the dicationic diguanidino compound DB1127 (10 μM) was used and 0.1% DMSO was added as negative control. Metacestodes were cultured in the presence of the compounds for 5 days, after which PGI release was quantified exactly as stated in Stadelmann et al. […] Averages, standard deviations and EC50 values were calculated in Microsoft Excel 2010.
For COc1ccc2sc(N(Cc3cccnc3)C(=O)c3ccc(C#N)cc3)nc2c1 [MMV001239], the “PGI (% of DB1127 at 10 uM)” value was -2.38%. In the case of CCCCCCn1c(=N)n(CC(O)COc2cccc(C)c2)c2ccccc21.Cl (stereo not drawn) [MMV000445], the “PGI (% of DB1127 at 10 uM)” value is reported as 130.28%. With CCn1nc(-c2ccc(C(=O)OC)cc2)nc2c(=O)n(C)c(=O)nc1-2 [MMV306025] the “PGI (% of DB1127 at 10 uM)” value was -10.99%. O=c1nc(C=Cc2ccc(Cl)cc2)oc2ccccc12 [MMV007977] was tested, and the “PGI (% of DB1127 at 10 uM)” value was 41.38%. O=C1c2ccccc2C2=Nc3ccccc3SC(c3cccc(F)c3)C12 (stereo not drawn) [MMV006389] was tested, and the “PGI (% of DB1127 at 10 uM)” value was -15.52%. In the case of COc1ccc(Nc2nc(N/N=C/c3ccc(O)cc3)nc(Nc3ccc([N+](=O)[O-])cc3)n2)cc1 [MMV666689], the “PGI (% of DB1127 at 10 uM)” value is reported as 5.99%. With COc1ccc(-c2cc(=O)oc3c4c(ccc23)OCN(Cc2ccc(F)cc2)C4)cc1 [MMV000604] the “PGI (% of DB1127 at 10 uM)” value was 3.81%. CCN(CC)CCNc1ncnc2c1[nH]c1ccc(Br)cc12 [MMV006545] was tested, and the “PGI (% of DB1127 at 10 uM)” value was -33.20%. In the case of O=C1c2ccccc2-c2nnc(-c3ccc(Br)cc3)cc21 [MMV665934], the “PGI (% of DB1127 at 10 uM)” value is reported as -7.23%. With COc1ccc(C)c2sc(N(Cc3cccnc3)C(=O)c3ccc(C#N)cc3)nc12 [MMV001241] the “PGI (% of DB1127 at 10 uM)” value was -0.13%. In the case of CCOC(=O)c1cnc2ccc(Cl)cc2c1NCCCN(C)C [MMV006882], the “PGI (% of DB1127 at 10 uM)” value is reported as 9.75%. In the case of COc1ccc2c(c1)OC(O)(C(F)(F)C(F)(F)F)CC2=O (stereo not drawn) [MMV007839], the “PGI (% of DB1127 at 10 uM)” value is reported as 50.23%. CCN(CC)c1ccc(NC(=O)c2cccs2)cc1 [MMV009060] was tested, and the “PGI (% of DB1127 at 10 uM)” value was -36.82%. CCN1CCN(c2c(C(=O)c3ccccc3)cnc3cc(OC)c(OC)cc23)CC1 [MMV008474] was tested, and the “PGI (% of DB1127 at 10 uM)” value was -15.22%. With CCOC(=O)C1(Cc2ccccc2)CCN(Cc2cccc(OC)c2O)CC1 [MMV666109] the “PGI (% of DB1127 at 10 uM)” value was -8.56%. CCOC(=O)c1c(C)n(-c2ccc(Cl)cc2)c2ccc(OC(=O)C=Cc3ccccc3)cc12 [MMV666600] was tested, and the “PGI (% of DB1127 at 10 uM)” value was -39.04%. For O=C(NC1CCN(Cc2ccccc2)CC1)c1cc(C(=O)NC2CCN(Cc3ccccc3)CC2)cc(C(=O)NC2CCN(Cc3ccccc3)CC2)c1 [MMV019881], the “PGI (% of DB1127 at 10 uM)” value was 9.54%. In the case of COc1ccccc1C(=O)ON=C(N)Cc1cccc2ccccc12 [MMV666686], the “PGI (% of DB1127 at 10 uM)” value is reported as 1.82%. For COc1cc(C(=O)ON=C(N)Cc2cccc3ccccc23)cc(OC)c1OC [MMV666687], the “PGI (% of DB1127 at 10 uM)” value was 1.57%. In the case of Cl.OC(CNCc1ccccc1)Cn1c2ccccc2c2ccccc21 (stereo not drawn) [MMV000839], the “PGI (% of DB1127 at 10 uM)” value is reported as -2.41%. With CC(O)(c1ccc(Cl)cc1)C(CN1CCCCC1)c1ccccc1.Cl (stereo not drawn) [MMV000620] the “PGI (% of DB1127 at 10 uM)” value was -136.22%. COc1ccc(/C=C2/SC(=Nc3ccccc3)NC2=O)cc1 [MMV665836] was tested, and the “PGI (% of DB1127 at 10 uM)” value was -11.27%. With Cc1ccccc1OCCSc1nc2ccc(NC(=O)c3ccccc3)cc2s1 [MMV007577] the “PGI (% of DB1127 at 10 uM)” value was -17.47%. In the case of Cc1ccc(-c2cc(C(=O)Nc3ccc(S(=O)(=O)N4CCCCC4)cc3)[nH]n2)c(O)c1 [MMV665906], the “PGI (% of DB1127 at 10 uM)” value is reported as -8.23%. CNCCCNc1ccnc2cc(Cl)ccc12 [MMV020500] was tested, and the “PGI (% of DB1127 at 10 uM)” value was -31.62%. With COc1cc(C(=O)Nc2ccc(-c3nc4ccccc4[nH]3)cc2)cc(OC)c1OC [MMV665898] the “PGI (% of DB1127 at 10 uM)” value was -11.03%. For O=C(Nc1ccc(Cl)cc1C(=O)Nc1ccncc1)c1ccc(Cl)cc1Cl [MMV666057], the “PGI (% of DB1127 at 10 uM)” value was -78.23%. CCOc1ccc(CCNC(=O)c2cccs2)cc1OCC [MMV007978] was tested, and the “PGI (% of DB1127 at 10 uM)” value was -3.44%. In the case of COc1ccc(C2=C(c3ccc(OC)cc3)C3(c4ccccc4)C(=O)C2(c2ccccc2)C2C(=O)N(c4ccc(C)cc4)C(=O)C23)cc1 (stereo not drawn) [MMV666101], the “PGI (% of DB1127 at 10 uM)” value is reported as -51.33%. With COc1cccc(Cn2c(Oc3ccccc3)nc3c2c(=O)n(C)c(=O)n3C)c1 [MMV396705] the “PGI (% of DB1127 at 10 uM)” value was -23.91%. COc1ccccc1NC1=C(N2CCCCC2)C(=O)c2ccccc2C1=O [MMV085203] was tested, and the “PGI (% of DB1127 at 10 uM)” value was 31.65%. In the case of O=C(NNc1cc(N2CCCC2)nc(N2CCCC2)n1)c1ccccc1 [MMV396770], the “PGI (% of DB1127 at 10 uM)” value is reported as -1.95%. Cc1ccc(NC(=O)Nc2cccc(Cl)c2)cc1F [MMV000911] was tested, and the “PGI (% of DB1127 at 10 uM)” value was 185.05%. In the case of CCCCOC(=O)c1ccc(Nc2cc(C)nc3ccc(OC)cc23)cc1 [MMV665797], the “PGI (% of DB1127 at 10 uM)” value is reported as 0.71%. For Cc1ccc(N2C3c4ccccc4N(S(=O)(=O)c4ccc(C)cc4)C2c2ccccc2N3S(=O)(=O)c2ccc(C)cc2)cc1 [MMV007160], the “PGI (% of DB1127 at 10 uM)” value was -42.36%. For O=C(NCc1ccco1)C1CCN(S(=O)(=O)c2ccc(Cl)cc2)CC1 [MMV006188], the “PGI (% of DB1127 at 10 uM)” value was -16.08%. COCCn1c(C)nc2ccccc2c1=O [MMV665904] was tested, and the “PGI (% of DB1127 at 10 uM)” value was -26.17%. In the case of CCC(C)NCC(O)(c1ccc(Cl)cc1)c1ccc(Cl)cc1 (stereo not drawn) [MMV665928], the “PGI (% of DB1127 at 10 uM)” value is reported as -109.93%. For CCOC(=O)c1c[nH]c2c(CC)cccc2c1=O [MMV498479], the “PGI (% of DB1127 at 10 uM)” value was -7.93%. For Cc1cc(Nc2ccc(OCc3ccccc3)cc2)nc2cc(O)ccc12 [MMV007181], the “PGI (% of DB1127 at 10 uM)” value was 115.72%. Cc1ccc(-c2nc3ccccc3o2)cc1NCc1cc(Cc2ccccc2)ccc1O [MMV020912] was tested, and the “PGI (% of DB1127 at 10 uM)” value was -2.94%. With COc1ccc(C=C2SC(=N)N(c3ccccc3OC)C2=O)cc1 [MMV666691] the “PGI (% of DB1127 at 10 uM)” value was -41.85%. For COc1ccc2c(=O)cc(C(Cl)(Cl)Cl)oc2c1 [MMV665820], the “PGI (% of DB1127 at 10 uM)” value was -22.08%. C=CCc1c(C)nc2ccccc2c1O [MMV006913] was tested, and the “PGI (% of DB1127 at 10 uM)” value was -48.01%. With OC(CNC1CCCCC1)Cn1c2ccc(I)cc2c2cc(I)ccc21 (stereo not drawn) [MMV665882] the “PGI (% of DB1127 at 10 uM)” value was 54.36%. With COc1cc(C(=O)Nc2nc3c(cc4c5c(cccc53)CC4)s2)cc(OC)c1OC [MMV396665] the “PGI (% of DB1127 at 10 uM)” value was -11.85%. CCc1ccc(Nc2cc(C)c3ccc(O)cc3n2)cc1.Cl [MMV000570] was tested, and the “PGI (% of DB1127 at 10 uM)” value was -6.94%. O=C(Cc1ccccc1)NC(c1ccc(Cl)cc1)c1c(O)ccc2ccccc12 (stereo not drawn) [MMV665972] was tested, and the “PGI (% of DB1127 at 10 uM)” value was 15.67%. For CCCOCc1cc(CN2CCN(c3cccc(Cl)c3)CC2)c(O)c2ncccc12 [MMV000787], the “PGI (% of DB1127 at 10 uM)” value was 45.98%. With C[n+]1c2ccccc2nc2ccc(NCCO)cc21 [MMV396693] the “PGI (% of DB1127 at 10 uM)” value was -18.69%. Cc1ccc(Nc2nc(NCCO)c3ccccc3n2)cc1C [MMV001038] was tested, and the “PGI (% of DB1127 at 10 uM)” value was 16.86%. For Cl.c1ccc2c(NCCCCCCNc3c4c(nc5ccccc35)CCCC4)c3c(nc2c1)CCCC3 [MMV019555], the “PGI (% of DB1127 at 10 uM)” value was -3.16%. With Cc1cc(NCCN2CCCCC2)c2ccc3ccccc3c2n1 [MMV006203] the “PGI (% of DB1127 at 10 uM)” value was -66.37%. With CC1CC2=C(CC1CNCCCN(C)C)C(C)(C)CCC2 (stereo not drawn) [MMV665830] the “PGI (% of DB1127 at 10 uM)” value was -3.36%.
